# In patent US9351992B2, “Non-anticoagulant polysaccharide compositions” (MOMENTA PHARMACEUTICALS, INC., priority 2007, dated 2016):
# Marks after values point to notes of the source that are not given here.
# Test system: C170HM2 human colorectal tumor cells
# Test: Colon cancer metastasis to the liver (orthotopic liver metastasis model)
# Type: in vivo, MF1 nude (nu/nu) athymic mice
# Description: Liver metastasis was initiated by intraperitoneal injection of C170HM2 human colorectal tumor cells into male MF1 nude (nu/nu) athymic mice. 5FU/leucovorin was used as a positive control.
# C170HM2 cells were maintained in vitro in RPMI culture medium (Sigma) containing 10% (v/v) heat inactivated fetal bovine serum and 2 mM L-glutamine at 37° C. in 5% CO2 and humidified conditions. Cells from sub-confluent monolayers were harvested with 0.025% EDTA, washed in culture medium and re-suspended in sterile phosphate buffered saline, pH 7.4 (PBS) for in vivo administration. 1.5×10^6 cells in a volume of 1 ml were injected intraperitoneally into 65 mice, and the mice were allocated into treatment groups as below.
# Treatment was initiated on day 1 following cell injection and continued until day 35 or until the clinical condition of the animal required termination. One mouse in group 6 was terminated on day 20 due to black tail, bruising, and very pale appearance. Groups and 6 missed one dose on day 5. No adverse affects of the test compounds in mice bearing the tumors were observed.
# The study was terminated on day 35, and the tumors in the liver were excised and weighed.
# [1] = 25 mg/kg i.v. days 1, 3, 5, 7, calculated in comparison to group 7 (untreated), not group 1
# [2] = 25 mg/kg i.v., compared to the untreated control group (group 7)
substance,measurement,setting,value
5FU/leucovorin [5 FU/Leu],Mean tumor weight,"25 mg/kg i.v. cycled on days 1, 3, 5, 7, liver tumors day 35",0.037 g
same,Mean tumor area (% of vehicle),[1],15.7 % of vehicle
same,Mean tumor weight (% of vehicle),[1],11.94* % of vehicle
same,Mean tumor area (mm^2),"25 mg/kg i.v. days 1, 3, 5, 7, cross-sectional area, day 35",13.12 mm^2
same,decrease in tumor cross-sectional area,[2],84%
same,decrease of tumor weight in the liver,[2],approximately 88%
same,decrease in tumor size,"25 mg/kg i.v., compared to the vehicle control group (group 1), not significant",62%
